Measurements as given in ChEMBL document CHEMBL1811895, “Regioselective synthesis of water-soluble monophosphate derivatives of combretastatin A-1” (J Nat Prod, 2011).

Assays:
[1] = tested on: SK-OV-3; assay: Cytotoxicity against human SKOV3 cells by SRB assay; assay type: functional
[2] = Inhibition of tubulin polymerization in bovine brain after 20 mins by spectrophotometry; parameters: species or system Bos taurus
[3] = tested on: NCI-H460; assay: Cytotoxicity against human NCI-H460 cells by SRB assay; assay type: functional
[4] = tested on: DU-145; assay: Cytotoxicity against human DU145 cells by SRB assay; assay type: functional

Compound | GI50 [1] [nM] | IC50 [2] [nM] | GI50 [3] [nM] | GI50 [4] [nM]
COc1cc(/C=C\c2ccc(OC)c(OP(=O)(O)O)c2O)cc(OC)c1OC | 2.6 | > 40000 | 33.4 | 15.5
COc1cc(/C=C\c2ccc(OC)c(OP(=O)(O)O)c2OP(=O)(O)O)cc(OC)c1OC | 1.03 | > 40000 | 13.3 | 2.87
COc1ccc(/C=C/c2cc(OC)c(OC)c(OC)c2)c(O)c1O | 2270 | 11000 | 1320 | 2140
COc1ccc(/C=C\c2cc(OC)c(OC)c(OC)c2)c(OP(=O)(O)O)c1O | 1.64 | > 40000 | 3.56 | 2.77
COc1ccc(/C=C\c2cc(OC)c(OC)c(OC)c2)c(O)c1O [COMBRETASTATIN A-1] | 38.4 | 1900 | 15.3 | 32.6
COc1ccc(/C=C/c2cc(OC)c(OC)c(OC)c2)c(OP(=O)(O)O)c1O | 465 |  | 1550 | 2130
COc1cc(/C=C/c2ccc(OC)c(OP(=O)(O)O)c2O)cc(OC)c1OC | 681 |  | 336 | 520
